{"source": "patent US20130096097A1", "about": "“PHARMACEUTICAL MULTIMERIC PARTICLES, AND MANUFACTURING METHOD FOR SAME” (JAPAN SCIENCE AND TECHNOLOGY AGENCY, priority 2010, published 2013)", "key": {"[1]": {"system": "Human liver cancer cell lines HepG2", "assay": "In vitro anticancer activity, cell viability by Cell Counting Kit-8", "format": "cell-based", "settings": "for anticancer activity against HepG2 (cell viability): 0.15625-10 μM in terms of SN-38 monomer, 48 hours, FIG. 3", "procedure": "Human liver cancer cell lines HepG2 was seeded on 96-well plate in 2×10^4 cells/well. Next day, irinotecan, SN-38 bulk crystal, SN-38 diester dimer nanoparticle, and SN-38 diisocyanate dimer nanoparticle were added to the HepG2 cell culture in an amount to be 0.15625, 0.3125, 0.625, 1.25, 2.5, 5 or 10 μM in terms of SN-38 monomer. After cultivating for 48 hours, the cell viability was measured by a colorimetric method using Cell Counting Kit-8 (manufactured by DOJINDO) and microplate reader (manufactured by BIO-RAD). […] In addition, it became obvious that when SN-38 was dimerized via ester bond or urethane bond, or further nanoparticulated, the anticancer activity thereof can be retained (FIG. 3).\nFurther, two kinds of aqueous dispersion solution of SN-38 dimer nanoparticles were left at room temperature for about one week, thus prepared aging sample.\nIn FIG. 3 and FIG. 4, there was no difference in the anticancer activity against HepG2 between the binding modes included in the SN-38 dimer nanoparticles, namely, ester bond and urethane bond. That is, both bonds are expected to be decomposed at about the same speed in the solution, and SN-38 monomers are formed. To confirm this, SN-38 is dimerized with low degradable ether bond, further subjected to aging, then studied the anticancer activity against HepG2. The treatment concentration at this time was made 0.1, 1, 10 μM in terms of SN-38."}, "[2]": {"assay": "Particle size of dimer nanoparticles in aqueous dispersion made by reprecipitation", "format": "physicochemical", "settings": "5 mM DMSO solution injected into water at room temperature, final concentration 0.05 mM", "procedure": "(§1) Dimer of SN-38 and succinic acid was weighed out to be 5 mM, and dissolved in DMSO 150 μl. Using water as poor solvent, 100 μl of the DMSO solution was injected into water 10 ml with syringe at room temperature, thus aqueous dispersion solution of dimer nanoparticles was prepared. Final concentration of the aqueous dispersion solution was 0.05 mM. The particle size was 50 nm (FIG. 1).\nas §1, with “tetramethylene diisocyanate” for “succinic acid”, “in” for “in DMSO”, “μl of DMSO.” for “μl.”, “2).” for “1).”\nas §1, with “of betamethasone valerate” for “of SN-38”, “in” for “in DMSO”, “150 μl of DMSO.” for “150 μl.”, “was 150” for “was 50”, “(FIG. 2).” for “(FIG. 1).”"}, "[3]": {"settings": "cited from earlier work"}}, "data": [{"smiles": "CCc1c2c(nc3ccc(OC/C=C/COc4ccc5nc6c(c(CC)c5c4)Cn4c-6cc5c(c4=O)COC(=O)C5(O)CC)cc13)-c1cc3c(c(=O)n1C2)COC(=O)C3(O)CC", "note": "(centres unmarked) [Compound 18-(d), bis(7-ethylcamptothecin-10-oxy)2-buten ether]", "values": [{"measurement": "anticancer activity against HepG2", "setting": "[1]; 0.1, 1, 10 μM in terms of SN-38, FIG. 5", "result": "almost disappeared"}, {"measurement": "aging effect on anticancer activity against HepG2", "setting": "[1]; 0.1, 1, 10 μM in terms of SN-38, aged sample, FIG. 5", "result": "little"}]}, {"smiles": "CCc1c2c(nc3ccc(OC(=O)CCC(=O)Oc4ccc5nc6c(c(CC)c5c4)Cn4c-6cc5c(c4=O)COC(=O)C5(O)CC)cc13)-c1cc3c(c(=O)n1C2)COC(=O)C3(O)CC", "note": "(centres unmarked) [Compound 18-(b), succinic acid bis(7-ethylcamptothecin-10-yl)ester]", "values": [{"measurement": "particle size", "setting": "[2]", "result": 50, "unit": "nm"}, {"measurement": "anticancer activity against HepG2 (cell viability)", "setting": "[1]", "result": "remarkable anticancer activity"}]}, {"smiles": "CCc1c2c(nc3ccc(O)cc13)-c1cc3c(c(=O)n1C2)COC(=O)[C@]3(O)CC", "note": "[SN-38, 10-hydroxy-7-ethylcamptothecin, reference compound]", "values": [{"measurement": "water-solubility", "setting": "[3]", "result": "extremely poor"}, {"measurement": "anticancer activity against HepG2 (cell viability)", "setting": "[1]", "result": "remarkable anticancer activity"}]}, {"smiles": "CC[C@@]1(O)C(=O)OCc2c1cc1n(c2=O)Cc2cc3ccccc3nc2-1", "note": "[Camptothecin]", "values": [{"measurement": "water-solubility", "setting": "[3]", "result": "extremely insoluble in water"}]}, {"smiles": "CCCCC(=O)O[C@]1(C(=O)COC(=O)CCC(=O)OCC(=O)[C@@]2(OC(=O)CCCC)[C@@H](C)C[C@H]3[C@@H]4CCC5=CC(=O)C=C[C@]5(C)[C@@]4(F)[C@@H](O)C[C@@]32C)[C@@H](C)C[C@H]2[C@@H]3CCC4=CC(=O)C=C[C@]4(C)[C@@]3(F)[C@@H](O)C[C@@]21C", "note": "[Compound 19-(b)]", "values": [{"measurement": "particle size", "setting": "[2]", "result": 150, "unit": "nm"}]}, {"smiles": "CCc1c2c(nc3ccc(OC(=O)NCCCCNC(=O)Oc4ccc5nc6c(c(CC)c5c4)Cn4c-6cc5c(c4=O)COC(=O)C5(O)CC)cc13)-c1cc3c(c(=O)n1C2)COC(=O)C3(O)CC", "note": "(centres unmarked) [Compound 18-(c), butylene bis(7-ethylcamptothecin-10-yl)amide]", "values": [{"measurement": "particle size", "setting": "[2]", "result": 50, "unit": "nm"}, {"measurement": "anticancer activity against HepG2 (cell viability)", "setting": "[1]", "result": "remarkable anticancer activity"}]}, {"smiles": "CCc1c2c(nc3ccc(OC(=O)N4CCC(N5CCCCC5)CC4)cc13)-c1cc3c(c(=O)n1C2)COC(=O)[C@]3(O)CC", "note": "[irinotecan, 7-ethyl-10-[4-(1-piperidino)-1-piperidino]carbonyloxycamptothecin, reference compound]", "values": [{"measurement": "anticancer activity against HepG2 (cell viability)", "setting": "[1]", "result": "almost no anticancer activity"}]}]}
